In US20260085067A1, “CYCLIC SULFONAMIDE RIBONUCLEOTIDE REDUCTASE (RNR) INHIBITORS AND USES THEREOF” (Boundless Bio, Inc., priority 2022, published 2026) one finds IC50 data, which are given here for 14 molecules.

What is called IC50 is the midpoint of a concentration-inhibition curve.

The test system of the assay is pCHK1 (S345) in Colo320 DM cells. Kind of assay: Alphalisa assay, detection of pCHK1 (S345) in Colo320 DM cells. It counts as cell-based, human. The note with it: Homo sapiens, COLO 320DM, compound overnight (approximately 16 hours). The protocol: Colo320 DM cells (ATCC #CCL-220, derived from human colorectal adenocarcinoma, Dukes' type C) were seeded on a […], cell culture treated assay plate at a density of 50,000 cells/well in 200 μL of RPMI-1640 media supplemented with 10% Fetal Bovine Serum and incubated at 37° C. overnight. The following day, test compound dilutions were added directly to the plated cells by a Tecan digital dispenser to a final DMSO concentration of <0.5%. and incubated at 37° C. overnight (approximately 16 hours). The following day all cell culture media was removed from the cells. 75 μL of 1×AlphaLisa lysis buffer was added to each well and plates were agitated on a shaker for 30 minutes at room temperature. The lysis of cells and detection of pCHK1 (S345) were performed with reagents contained within the AlphaLisa Sure Fire assay kit (Perkin Elmer #ALSU-PCHK1-A) according to the manufacturer's instructions. 10 μL of each lysate was then transferred to a white, 384-well assay plate (Perkin Elmer #6008280). 5 μL of Acceptor mix was then added to each well of lysate in the white, 384-well assay plate and incubated in the dark at room temperature for 60 minutes. 5 μL of Donor mix was then added to each well of the white, 384-well assay plate in subdued light and incubated at room temperature for 60 minutes. Plates were read on an Alpha Technology-compatible plate reader using standard AlphaLisa settings.
A general note: Bead proximity is the source of the signal in Alpha formats.

`CNCCN1CN([C@H](c2n[nH]c(=O)o2)[C@H](C)c2c(F)ccc(C)c2C)S(=O)(=O)c2ccc(Cl)cc21` [Example 115, 5-((1S,2R)-1-(6-chloro-4-(2-(methylamino)ethyl)-1,1-dioxido-3,4-dihydro-2H-benzo[e][1,2,4]thiadiazin-2-yl)-2-(6-fluoro-2,3-dimethylphenyl)propyl)-1,3,4-oxadiazol-2 (3H)-one]: the IC50 was in the range of 5 to 10 µM.
As for `Cc1ccc(F)c([C@@H](C)[C@@H](c2n[nH]c(=O)o2)N2CN([C@H]3C[C@@H](O)C3)c3cc(Cl)ccc3S2(=O)=O)c1C` [Example 112, 5-((1S,2R)-1-(6-chloro-4-((1s,3R)-3-hydroxycyclobutyl)-1,1-dioxido-3,4-dihydro-2H-benzo[e][1,2,4]thiadiazin-2-yl)-2-(6-fluoro-2,3-dimethylphenyl)propyl)-1,3,4-oxadiazol-2 (3H)-one], the figure is ≤ 1 µM; as for `Cc1ccc(F)c([C@@H](C)[C@@H](c2n[nH]c(=O)o2)N2CN(OCc3ccccc3)c3cc(Cl)ccc3S2(=O)=O)c1C` [Example 114, 5-((1S,2R)-1-(4-(benzyloxy)-6-chloro-1,1-dioxido-3,4-dihydro-2H-benzo[e][1,2,4]thiadiazin-2-yl)-2-(6-fluoro-2,3-dimethylphenyl)propyl)-1,3,4-oxadiazol-2 (3H)-one], 5 to 10 µM; as for `Cc1ccc(F)c([C@@H](C)[C@@H](c2n[nH]c(=O)o2)N2CN(CCF)c3cc(Cl)ccc3S2(=O)=O)c1C` [Example 108, 5-((1S,2R)-1-(6-chloro-4-(2-fluoroethyl)-1,1-dioxido-3,4-dihydro-2H-benzo[e][1,2,4]thiadiazin-2-yl)-2-(6-fluoro-2,3-dimethylphenyl)propyl)-1,3,4-oxadiazol-2 (3H)-one], ≤ 1 µM.
As for `CC(=O)c1cc(Cl)cc2c1S(=O)(=O)N([C@H](c1n[nH]c(=O)o1)[C@@H](C)c1c(F)ccc(C)c1C)CN2C1CC1` [Example 94, 5-((1S,2S)-1-(8-acetyl-6-chloro-4-cyclopropyl-1,1-dioxido-3,4-dihydro-2H-benzo[e][1,2,4]thiadiazin-2-yl)-2-(6-fluoro-2,3-dimethylphenyl)propyl)-1,3,4-oxadiazol-2 (3H)-one], the figure is 1 to 5 µM; as for `Cc1ccc(F)c([C@@H](C)[C@@H](c2n[nH]c(=O)o2)N2COc3c(ccc(Cl)c3C)S2(=O)=O)c1C` [Example 31, 5-((1S,2R)-1-(6-chloro-5-methyl-1,1-dioxidobenzo[e][1,4,3]oxathiazin-2 (3H)-yl)-2-(6-fluoro-2,3-dimethylphenyl)propyl)-1,3,4-oxadiazol-2 (3H)-one], 1 to 5 µM.
As for `CC(=O)c1cc(Cl)cc2c1S(=O)(=O)N([C@H](c1n[nH]c(=O)o1)[C@H](C)c1c(F)ccc(C)c1C)CN2CCO` [Example 110, 5-((1S,2R)-1-(8-acetyl-6-chloro-4-(2-hydroxyethyl)-1,1-dioxido-3,4-dihydro-2H-benzo[e][1,2,4]thiadiazin-2-yl)-2-(6-fluoro-2,3-dimethylphenyl)propyl)-1,3,4-oxadiazol-2 (3H)-one], the figure is ≤ 1 µM; as for `CC(=O)c1cc(Cl)cc2c1S(=O)(=O)N([C@H](c1n[nH]c(=O)o1)[C@H](C)c1c(F)ccc(C)c1C)CN2` [Example 109, 5-((1S,2R)-1-(8-acetyl-6-chloro-1,1-dioxido-3,4-dihydro-2H-benzo[e][1,2,4]thiadiazin-2-yl)-2-(6-fluoro-2,3-dimethylphenyl)propyl)-1,3,4-oxadiazol-2 (3H)-one], ≤ 1 µM; as for `Cc1ccc(F)c([C@@H](C)[C@@H](c2n[nH]c(=O)o2)N2CN([C@H]3C[C@@H](N(C)C)C3)c3cc(Cl)ccc3S2(=O)=O)c1C` [Example 111, 5-((1S,2R)-1-(6-chloro-4-((1s,3R)-3-(dimethylamino)cyclobutyl)-1,1-dioxido-3,4-dihydro-2H-benzo[e][1,2,4]thiadiazin-2-yl)-2-(6-fluoro-2,3-dimethylphenyl)propyl)-1,3,4-oxadiazol-2 (3H)-one], ≤ 1 µM.
Consider `CC(=O)c1cc(Cl)cc2c1S(=O)(=O)N([C@H](c1n[nH]c(=O)o1)[C@H](C)c1c(F)ccc(C)c1C)CC(=O)N2` [Example 119, 5-((1S,2R)-1-(9-acetyl-7-chloro-1,1-dioxido-4-oxo-4,5-dihydrobenzo[f][1,2,5]thiadiazepin-2 (3H)-yl)-2-(6-fluoro-2,3-dimethylphenyl)propyl)-1,3,4-oxadiazol-2 (3H)-one], for which the concentration for half-maximal inhibition (IC50) was 5 to 10 µM.
As for `Cc1ccc(F)c([C@@H](C)[C@@H](c2n[nH]c(=O)o2)N2CN(CC(C)(C)O)c3cc(Cl)ccc3S2(=O)=O)c1C` [Example 91, 5-((1S,2R)-1-(6-chloro-4-(2-hydroxy-2-methylpropyl)-1,1-dioxido-3,4-dihydro-2H-benzo[e][1,2,4]thiadiazin-2-yl)-2-(6-fluoro-2,3-dimethylphenyl)propyl)-1,3,4-oxadiazol-2 (3H)-one], the figure is ≤ 1 µM; as for `Cc1ccc(F)c([C@@H](C)[C@@H](c2n[nH]c(=O)o2)N2CN(CCN)c3cc(Cl)ccc3S2(=O)=O)c1C` [Example 113, 5-((1S,2R)-1-(4-(2-aminoethyl)-6-chloro-1,1-dioxido-3,4-dihydro-2H-benzo[e][1,2,4]thiadiazin-2-yl)-2-(6-fluoro-2,3-dimethylphenyl)propyl)-1,3,4-oxadiazol-2 (3H)-one], 5 to 10 µM; as for `Cc1ccc(F)c([C@@H](C)[C@@H](c2n[nH]c(=O)o2)N2C(C)N(C)c3cc(Cl)ccc3S2(=O)=O)c1C` (stereo partly drawn) [Example 11, 5-((1S,2R)-1-(6-chloro-3,4-dimethyl-1,1-dioxido-3,4-dihydro-2H-benzo[e][1,2,4]thiadiazin-2-yl)-2-(6-fluoro-2,3-dimethylphenyl)propyl)-1,3,4-oxadiazol-2 (3H)-one], 10 to 50 µM.
As for `Cc1ccc(F)c([C@@H](C)[C@@H](c2n[nH]c(=O)o2)N2CN(C3CN(CC(F)F)C3)c3cc(Cl)ccc3S2(=O)=O)c1C` [Example 107, 5-((1S,2R)-1-(6-chloro-4-(1-(2,2-difluoroethyl)azetidin-3-yl)-1,1-dioxido-3,4-dihydro-2H-benzo[e][1,2,4]thiadiazin-2-yl)-2-(6-fluoro-2,3-dimethylphenyl)propyl)-1,3,4-oxadiazol-2 (3H)-one], the figure is ≤ 1 µM.
